Data set [1] deals with normal human fibroblasts. Nature of the data set: Intracellular penetration of fluorescent tracers, free or in liposomes (spectrofluorimetry). The class given is cell-based. The following applies: for cell-permeating: free probe; for Penetration in liposome: probe encapsulated in liposome; for Penetration (fluorescence after washing): 0.01% tracer in liposomes; for Penetration (fluorescence after washing) / Penetration free probe: 24 hours, gain (45 PFB-F, 50 TRITC). An excerpt: (§1) The selection of the tracer necessitated the preparation and the purification of liposomes, according to the protocol described in Example 1, these liposomes containing varying concentrations of the various hydrosoluble or liposoluble tracers (Table 1, Annex 1). The controls—a free fluorescent tracer—are made by dissolution at the same concentration of fluorescent tracer in the dilution buffer, so as to quantify its cytotoxicty and its spontaneous penetration in the fibroblasts.
Practically, after extraction from a biopsy originating from abdominal plastic surgery, the fibroblasts are amplified in DF medium, i.e.: DMEM (Dulbecco's Modified Eagle's Medium)/Ham F12 glutamax 50/50 volume/volume, supplemented with 10% of calf serum, with penicillin at a final concentration of 100 UI/millilitre, with gentamicin at a final concentration of 1 microgram/millilitre, with amphotericin B at a final concentration of 1 microgram/millilitre.
Firstly, after centrifugation, the purified liposomes are taken up into DF culture medium, homogenised in a vortex, and are deposited at the rate of 1 ml per well on the fibroblasts cultivated in 24-well plates (Costar MW24). The controls are made under the same conditions. A non-treated control is also made.
(§2) The fibroblasts are incubated for 24 hours at 37° C. in the presence of the liposomes, and are then rinsed 3 times in pH 7.4 phosphate buffer. First of all, the fluorescence is evaluated dry by spectrofluorimetry with a Cytofluor 4000® (Millipore). Secondly, the intracellular fluorescence is observed for the molecules of interest on an Olympus® reverse microscope (IX70) by using the corresponding excitation filter (objective ×10, ×40 and ×100). Finally, the cytotoxicity of the fluorescent tracers is evaluated in a 96-well plate by incubation for 24 hours as described in Example 1.
The intracellular penetration of liposomes which contain 5% of soya lecithin, 0.01% of PFB-F or TRITC in the presence or not of 0.5% 25 kDa polyethylenimine (PEI), which are prepared according to the protocol described in Example 1, is analysed after incubation for 24 hours on human fibroblasts cultivated in a 24-well plate, as described in Example 2.

The subject of data set [2] is normal human fibroblasts. Nature of the data set: Cytotoxicity of the fluorescent tracers (paranitrophenylphosphate test). The class given is cell-based. The following applies: for Cell viability (% of untreated control): incubation 24 hours. The method, then: Each concentration is tested on 6 different wells.
as §1, §2

A short description of data set [3]: Encapsulation of fluorescent tracer in soya lecithin liposomes (yield, leak). The class given is physicochemical. Here is the method: 0.5 g of soya lecithin, 0.01% of fluorescent tracer which is pre-solubilised according to the recommendations of the provider, are introduced into a dish and is diluted in 10 ml of Trizma buffer. After magnetic agitation for 30 minutes at ambient temperature, the mixture is vigorously homogenised for 10 minutes, in thus obtaining a liposomal solution in which the liposomes have an average size which can vary between 100 and 800 nanometres according to the exact conditions of homogenisation.
The aim of the purification step is to separate the non-encapsulated tracer fraction from the fraction of tracer which is encapsulated in the liposomes. For this, the liposomal solution is centrifuged in a conical tube for 10 minutes at 1,790 g at ambient temperature. The plugs are then recovered and then solubilised in 10 ml of culture medium.
Liposomes are prepared according to the method described in Example 5 with increasing concentrations of 25 kDa PEI from 0 to 100 μM. After centrifugation at 1,790 g for 10 minutes, the supernatants are quantified by spectrofluorimetry. The yields of encapsulation are calculated with respect to the initial concentration.

Data set [4] deals with normal human fibroblasts. Put plainly: Cell viability in the screening of functionalising molecules. The settings on record: 1% of molecule (25 kDa PEI: 50 μM), 96-well plate. Here is the method:
250 μl of liposomal suspension is added onto cultures of normal human fibroblasts extracted from abdominal plasy and cultivated in a 96-well plate. Each concentration is tested on 6 different wells. The cell viability is evaluated by a test with paranitrophenylphosphate which determines the intracellular alkaline phosphatase activity after three rinses with pH 7.4 phosphate buffer. The percentage of living cells is calculated with respect to a control made without the addition of liposome in the culture well (n=6).
55 molecules are firstly tested in triplicate, in comparison with the 50 μM 25 kDa PEI. The intracellular penetration is quantified after 24 hours of incubation on normal human fibroblasts cultivated in 24-well plates as described in Example 2. The cell viability is estimated in a 96-well plate with 200 μl of liposomal suspension.
The intracellular penetration and the cytotoxicity are evaluated as described in Example 2.

The source of these data is patent US9655822B2, “Hydrated lamellar phases or liposomes which contain a fatty monoamine or a cationic polymer which promotes intracellular penetration, and a cosmetic or pharmaceutical composition containing same, as well as a method of screening such a substance” (BASF Beauty Care Solutions France S.A.S., priority 2004, dated 2017).

Take `Cc1ccc(N(CC(=O)[O-])CC(=O)[O-])c(OCCOc2cc3cc(-c4ncc(C(=O)[O-])o4)oc3cc2N(CC(=O)[O-])CC(=O)[O-])c1.[K+].[K+].[K+].[K+].[K+]` [#F-1200 Fura-2. pentapotassium salt, Fura-2. pentapotassium salt]: in the data set with normal human fibroblasts [1], the cell-permeating result is listed as “No” and the Penetration in liposome result is listed as “No”. Also, the Toxicity result in the data set on normal human fibroblasts [2] was “No”. The Encapsulated result in data set [3] is reported as “No”.

Turning to `CCCCCCCCCCN` [Decylamine C10, Decylamine], in the data set on normal human fibroblasts [4], the Viability came out at 68.5%.

In the data set on normal human fibroblasts [4], `CCCCNCCCC` [Dibutylamine 2 C4, Dibutylamine] gave a Viability of 75.7%.

The compound `CCCCCCCCCCNCCCCCCCCCC` [Didecylamine 2 C10, Didecylamine] displayed a Viability in the data set with normal human fibroblasts [4] of 28.3%.

Take `CCCCCCCCNCCCCCCCC` [Dioctylamine 2 C8, Dioctylamine]: the Viability with normal human fibroblasts [4] came out at 34.7%.

`CCCCCCCCCCCCN` [Dodecylamine C12, Dodecylamine] came in with a Viability with normal human fibroblasts [4] of 57%.

`CCCCCCCN` [Heptylamine C7, Heptylamine] returned a Viability in the data set with normal human fibroblasts [4] of 39.4%.

As to `CCCCCCN` [Hexylamine C6, Hexylamine], the Viability in the data set with normal human fibroblasts [4] is recorded as 82.1%.

As for `CCCCCCCCCCCCCCCCCCN` [Octadecylamine C18, Octadecylamine], in the data set with normal human fibroblasts [4], the Viability was 61.2%.

Turning to `CCCCCCCC/C=C\CCCCCCCCN` [Oleylamine C18:1, Oleylamine], in the data set on normal human fibroblasts [4], the Viability was 87.1%.

`O=C1OC2(c3ccc(O)cc3Oc3cc(O)ccc32)c2ccc(NC(=O)c3c(F)c(F)c(F)c(F)c3F)cc21` [PFB-F, 5-pentafluorobenzoylaminofluorescein]: the “Penetration (fluorescence after washing)” value in the data set with normal human fibroblasts [1] is 65 (gain 45). The cell-permeating result in the data set on normal human fibroblasts [1] is “No”. Also, in the data set on normal human fibroblasts [1] (free tracer), the Penetration free probe is 8 (gain 45). Also, the Penetration in liposome result with normal human fibroblasts [1] is listed as “Yes”. The “Cell viability (% of untreated control)” value with normal human fibroblasts [2] was determined as 110.7%. For the same compound, in data set [3], the Encapsulated entry was “Yes”. Further, in data set [3], the leak entry was “No”. The “Yield (%) of encapsulation of PFB-F” value in data set [3] (PEI 0 μM) is given as 89.0%; in data set [3] (PEI 1 μM), 92.3%; in data set [3] (PEI 10 μM), 91.0%; in data set [3] (PEI 50 μM) it was 87.5%; in data set [3] (PEI 100 μM) it was 86.3%. For the same compound, in data set [3] (liposomes based on soya lecithin), the “yield of incorporation in the liposomes” value is recorded as “about 80%”.

The compound `CCCCCCCCCCCCCCCN` [Pentadecylamine C15, Pentadecylamine] displayed a Viability with normal human fibroblasts [4] of 73%.

Consider `CCCN` [Propylamine C3, Propylamine], for which, in the data set on normal human fibroblasts [4], the Viability is reported as 103.3%.

`CCCCCCCCCCCCCCCCCC[N+](C)(C)Cc1ccccc1.[Cl-]` [Stearalkonium chloride, benzyldimethyl (octadecyl) ammonium chloride]: the Viability with normal human fibroblasts [4] was determined as 37.4%.

For the compound `CCCCCCCCCCCCCCN` [Tetradecylamine C14, Tetradecylamine], the Viability in the data set with normal human fibroblasts [4] is 54.8%.

With `CC(O)CN(CCN(CC(C)O)CC(C)O)CC(C)O` (centres unmarked) [Tetrahydroxypropyl ethylenediamine], the Viability in the data set on normal human fibroblasts [4] was 95.3%.

As for `CCCCCCCCCCCCCN` [Tridecylamine C13, Tridecylamine], the Viability in the data set with normal human fibroblasts [4] stood at 62.6%.

In the data set with normal human fibroblasts [4], `CCCCCCCCCCCN` [Undecylamine C11, Undecylamine] returned a Viability of 84%.

Turning to `NNC(=O)COc1cc(S(=O)(=O)[O-])c2ccc3c(S(=O)(=O)[O-])cc(S(=O)(=O)[O-])c4ccc1c2c43.[Na+].[Na+].[Na+]` [cascade blue hydrazine trisodium salt], in the data set on normal human fibroblasts [1], the cell-permeating result is given as “No” and the Penetration in liposome entry is on record as “Very low”. Besides, in the data set on normal human fibroblasts [2], the Toxicity result is on record as “No”. The Encapsulated entry in data set [3] is “Yes”.

With `O=S(=O)([O-])c1cc(O)c2ccc3c(S(=O)(=O)[O-])cc(S(=O)(=O)[O-])c4ccc1c2c34.[Na+].[Na+].[Na+]` [hydroxypyrene trisulfonic acid, trisodium salt], in the data set on normal human fibroblasts [1], the cell-permeating result is reported as “No” and the Penetration in liposome entry is reported as “No”. Also, the Encapsulated entry in data set [3] is recorded as “No”.

With “Lysosensor yellow/blue DND 160 [#L7545L Lysosensor yellow/blue DND 160]”, in the data set with normal human fibroblasts [1], the cell-permeating entry is “Yes” and the Penetration in liposome entry is reported as “No”. For the same compound, the Toxicity entry with normal human fibroblasts [2] was “No”. In data set [3], the Encapsulated result was “Yes” and the leak result is reported as “Yes”.

On to “carboxy dichlorofluorescein [#C-369 carboxy dichlorofluorescein]”, for which the cell-permeating result in the data set on normal human fibroblasts [1] is listed as “Yes”. In data set [3], the Encapsulated result is recorded as “Yes” and the leak result was “Yes”.

Turning to “carboxyethyl carboxyffluorescein [#B-1151 carboxyethyl carboxyffluorescein]”, in data set [3], the Encapsulated result is reported as “No”.

“dextran texas red [#D-3329 dextran texas red]”: in the data set with normal human fibroblasts [1], the cell-permeating result is given as “No” and the Penetration in liposome entry is given as “No”.

For “sulfo fluorescein diacetate [#S-1129 sulfo fluorescein diacetate]”, in the data set on normal human fibroblasts [1], the cell-permeating result is “no” and the Penetration in liposome result is “Very low”. Also, the Toxicity result in the data set on normal human fibroblasts [2] is recorded as “No”.

For “tetramethylrhodamine isothiocyanate [TRITC]”, in the data set with normal human fibroblasts [1], the “Penetration (fluorescence after washing)” value is given as 1,119 (gain 50) and the Penetration in liposome entry is on record as “Yes”. Moreover, in the data set with normal human fibroblasts [1] (free tracer), the “penetration when added free in the culture medium (in words)” value is given as “penetrates slightly” and the Penetration free probe was 295 (gain 50). In addition, in the data set on normal human fibroblasts [2], the Toxicity entry is “No”, the “cytotoxicity (in words)” value was “slightly cyctotoxic” and the “Cell viability (% of untreated control)” value is 74.8%. Further, the Encapsulated result in data set [3] was “Yes”.
